Where “and” joins values, the source holds several entries; their conditions need not be identical. Equal values may be shown once.
How the values were obtained:
human plasma [1] = assay: Chemical stability in plasma over the UC assay time course (T5hr/T1hr); details: for % remaining_PPB: chemical remaining in plasma over the PPB assay time course, NS = no significant loss; for PPB_Stab_Fail: flag for stability failure in the plasma protein binding assay (1 = fail, 0 = pass); for Time 1 hr / Time 1 hr, Run-specific Avg: amount measured in plasma sample at 1 hr; for Time 1 hr / Time 5 hr: replicates A, B, C; for Time 1 hr / Time 1 hr, Run-specific Avg / Time 5 hr / Time 5 hr, Run-specific Avg: unit not given; for Time 1 hr, Run-specific Avg / Time 5 hr, Run-specific Avg: run average; for Time 5 hr / Time 5 hr, Run-specific Avg: amount measured in plasma sample at 5 hr; for Stability (T5hr/ T1hr), Run-specific Avg: average of one UC run; for Mean Stability: mean T5hr/T1hr ratio in plasma over all replicates/runs; for Fstable.Med: median fraction stable in plasma, UC assay Level4
human plasma [2] = assay: Ultracentrifugation (UC) plasma protein binding assay, fraction unbound in plasma (fup); details: for Aqueous Fraction / Aqueous Fraction, Run-specific Avg: amount measured in aqueous fraction after ultracentrifugation, unit not given; for Aqueous Fraction: replicates A, B, C; for Aqueous Fraction, Run-specific Avg: run average; for Fraction Unbound (fu), Run-specific Avg: average of one UC run; for Mean fu: fraction unbound in human plasma, ultracentrifugation, some values based on eLOQ; for Fup.Med: median fraction unbound in plasma; for Fup.Med / Fup.point: UC assay Level4; for Fup.point: point estimate of fraction unbound in plasma

SMILES | % remaining_PPB (human plasma [1]) | PPB_Stab_Fail (human plasma [1]) | Time 1 hr (human plasma [1]) | Time 1 hr, Run-specific Avg (human plasma [1]) | Time 5 hr (human plasma [1]) | Time 5 hr, Run-specific Avg (human plasma [1]) | Stability (T5hr/ T1hr), Run-specific Avg (human plasma [1]) | Mean Stability (human plasma [1]) | Fstable.Med (human plasma [1]) | Aqueous Fraction (human plasma [2]) | Aqueous Fraction, Run-specific Avg (human plasma [2]) | Fraction Unbound (fu), Run-specific Avg (human plasma [2]) | Mean fu (human plasma [2]) | Mean Fu (human plasma [2]; mean fraction unbound in human plasma over all UC replicates/runs) | Fup.Med (human plasma [2]) | Fup.point (human plasma [2])
FC(F)(F)C(F)(F)C(F)(F)C(F)(F)C(F)(F)C(F)(F)CCS [DTXSID20379947] | 0% | 1 |  |  |  |  |  |  |  |  |  |  |  |  |  | 
FC(F)(F)C(F)(F)CNCC(F)(F)C(F)(F)F [Bis(1H,1H-perfluoropropyl)amine] |  | 0 | 11322.6 and 13421.7 and 13036.1 | 12593.46 | 11284.3 and 10114.7 and 8561.71 | 10699.45 | 0.850 | 0.799 | 0.999 | 403.75 and 491.531 and 501.978 | 465.75 | 0.05 | 0.0477 | 0.048 | 0.0412 | 0.0433
OCCC(F)(F)C(F)(F)C(F)(F)C(F)(F)C(F)(F)C(F)(F)C(F)(F)C(F)(F)F [8:2 Fluorotelomer alcohol] | 100% | 0 | 10349.3 (2×) and 9635.91 | 10111.53 | 7909.09 and 8525.8 and 8231.76 | 8217.44 | 0.813 | 0.814 | 0.162 | 192.869 and 61.5201 and 158.809 | 137.73 | 0.017 | 0.0170 |  | 0.0168 | 0.0243
C=C(C)C(=O)OCCC(F)(F)C(F)(F)C(F)(F)C(F)(F)C(F)(F)C(F)(F)F [6:2 Fluorotelomer methacrylate] | 54% | 0 |  |  |  |  |  |  | 0.0566 |  |  |  | 0.21 |  | 0.102 | 0.0856
NCC(F)(F)C(F)(F)C(F)(F)C(F)(F)C(F)(F)C(F)(F)F [1H,1H-Perfluoroheptylamine] | 54% | 0 | 7913.09 and 7505.36 and 6518.71 | 7312.39 | 3934.26 and 4036.14 and 3821.62 | 3985.20 | 0.545 | 0.541 | 0.0946 | 488.915 and 403.165 and 617.709 | 503.26 | 0.13 | 0.129 |  | 0.129 | 0.121
NCC(F)(F)C(F)(F)C(F)(F)C(F)(F)C(F)(F)C(F)(F)C(F)(F)C(F)(F)F [1H,1H-Perfluorononylamine] | 60% | 0 | 12346.8 and 12130.3 and 11151.5 | 11876.18 | 7604.95 and 6828.46 and 6766.48 | 7216.71 | 0.608 | 0.598 | 0.177 | 414.774 and 241.353 and 265.963 | 307.36 | 0.0431 | 0.043 |  | 0.0402 | 0.0359

From paper PMC10223284, “Category-Based Toxicokinetic Evaluations of Data-Poor Per- and Polyfluoroalkyl Substances (PFAS) using Gas Chromatography Coupled with Mass Spectrometry” (Toxics, 2023)
